The subject of experiment [1] is H838 NRF2-ARE-Fluc stable cell line. The experiment can be described thus: H838 Nrf2 assay: NRF2-ARE firefly luciferase reporter gene assay. Format: cell-based. Particulars: Homo sapiens, NCI-H838, read-out: Potency of inhibition, H838. The text has this: H838 is a NSCLC cell line with LOF Keap1 activity and constitutive translocation of NRF2 into the nucleus. A firefly luciferase reporter construct driven by a minimal promoter of NRF2-specific ARE is stably expressed in the H838 cells. This cell line was used as a confirmation assay to make sure hits identified from primary screening and that passed counterscreen assays worked in different cell types with a constitutively active NRF2 pathway (deficiency in Keap1).
This assay was very similar to the primary assay except that the cell line was changed. […] The final concentration of DMSO was maintained at 0.46%. Control compounds Budesonide and Staurosporine were both added at a concentration of 2 mM and Budesonide was also added as a 1:10 titration, starting at 200 μM, to achieve dose-response. After an 18-24 hour incubation at 37° C., 95% humidity, and 5% CO2, 1 μL of 5× CellTiter-Fluor non-lytic cell viability assay reagent (Promega, Madison Wis.) was added into the each well of the plates. The plates were then incubated for 30 minutes at room temperature before they were read on a ViewLux plate imager (Perkin Elmer, Waltham Mass.) using an excitation wavelength of 405 nm and an emission wavelength of 525 nm.
Representative compounds were assayed to assess the potency of inhibition in an A549 NRF2-ARE-Fluc stable cell line (A549 Nrf2 assay), in an H838 NRF2-ARE-Fluc stable cell line (H838 Nrf2 assay), and in an H1437 NRF2-ARE-Fluc stable cell line (H1437 Nrf2 assay) (see Table 3).

For another experiment, the system named is H460 xenograft tumors. The experiment can be described thus: H460 lung cancer xenograft assay (flank). Format: in vivo, athymic nude mice. Particulars: for Growth of H460 xenograft tumors, combination with carboplatin / Growth of H460 xenograft tumors, single agent: nude mice. As to the method:
For each group, pretreatment available lung volume was defined as 100% and compared with post-treatment lung volumes.
A549 cells were injected in the flanks of athymic nude mice and once tumor volume reached 50-100 mm^3, treatment was initiated. Vehicle, carboplatin (20 mg/kg; 2 days/week), compound#1 (20 mg/kg 4 days/week) or a combination of compound 1 and carboplatin was administered for four weeks. Values represent tumor volume ±s.e.m. for all groups. […] Tumors were excised and weight at the end of treatment period. […] H460 cells were injected in the flanks of athymic nude mice and once tumor volume reached 50-100 mm^3, treatment was initiated. Vehicle, carboplatin (10 mg/kg; 5 days/week), compound 1 (30 mg/kg 5 days/week) or a combination of compound 1 and carboplatin was administered for three weeks. Values represent tumor volume ±s.e.m.;
For the H460 lung cancer xenograft assay, two million cells in 100 μL of PBS were implanted in the flank of nude mice. One week post cell implantation, when the tumors were about 50 to 100 mm^3 in dimension, the mice were randomly divided into four groups: vehicle, chemotherapeutic drug, Nrf2 inhibitor and chemotherapeutic drug with an Nrf2 inhibitor. The mice were treated with the drugs for 2 to 4 weeks. Tumor volume was recorded biweekly.

Experiment [2] relates to pancreatic cancer cells (MiaPaCa). The experiment can be described thus: Clonogenic assay in MiaPaCa pancreatic cancer cells. The class given is cell-based. The following applies: for Growth of MiaPaCa cells, combination with gemcitabine: gemcitabine (10 nM in figure legends). As for the experimental part:
(A-B) Panc1 and MiaPaCa cells were treated gemcitabine (10 nM) singly or in combination with compound 1 for 72 h. At the end of treatment, regular growth media was added and cells were further incubated for 8-10 days and stained with crystal violet;
For the clonogenic assays, 1,000 cells/well were plated in a 6-well plate. The next day, the cells were treated with vehicle (DMSO), Nrf2 inhibitor, a chemotherapeutic drug, or a combination of Nrf2 and chemotherapeutic drugs for 48 hrs. The drug containing media was then replaced with regular growth media and the cells were incubated for an additional 10 days. At the end of incubation period, the colonies were stained with Crystal Violet and imaged.

The target in experiment [3] is T1, Nrf2-MAFG protein complex binding to fluorescein labeled ARE oligos (Homo sapiens, UniProt Q16236).
T1 construct: made in house
T1 sequence (Q16236 1-605): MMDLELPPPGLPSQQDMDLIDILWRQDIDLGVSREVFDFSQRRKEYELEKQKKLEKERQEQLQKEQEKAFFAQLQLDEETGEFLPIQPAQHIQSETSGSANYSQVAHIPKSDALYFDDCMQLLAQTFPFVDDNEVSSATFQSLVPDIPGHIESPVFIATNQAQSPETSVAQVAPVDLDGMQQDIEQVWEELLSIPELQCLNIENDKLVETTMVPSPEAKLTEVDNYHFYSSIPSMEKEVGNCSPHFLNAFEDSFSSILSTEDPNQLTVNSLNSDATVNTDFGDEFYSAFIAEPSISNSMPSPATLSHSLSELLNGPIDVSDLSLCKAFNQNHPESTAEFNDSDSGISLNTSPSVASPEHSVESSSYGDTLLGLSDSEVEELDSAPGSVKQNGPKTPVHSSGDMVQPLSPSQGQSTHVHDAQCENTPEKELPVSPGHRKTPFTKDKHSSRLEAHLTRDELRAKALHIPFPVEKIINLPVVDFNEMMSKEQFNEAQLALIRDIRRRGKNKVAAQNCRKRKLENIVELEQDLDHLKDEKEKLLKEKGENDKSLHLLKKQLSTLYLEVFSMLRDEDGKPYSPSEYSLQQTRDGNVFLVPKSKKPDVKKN
Nature of the experiment: Fluorescence polarization (FP) assay of DNA binding. The class given is biochemical. The following applies: increasing concentration of Nrf2 inhibitor. As to the method: To determine if the presently disclosed small molecule inhibitors were specifically interacting with Nrf2 or the Nrf2-MAF protein complex, a fluorescence polarization assay was developed. Ammonium aurintricarboxylate, a potent inhibitor of protein-nucleic acid interactions was used as positive control in the assay. The concentration of budesonide was 10 μM in the assay.
FP assay data showing inhibition of binding of Nrf2-MAFG protein complex to fluorescein labeled ARE oligos in the presence of compound 1 (FIG. 2), compound 4 (FIG. 3), and compound 3 (FIG. 4) are shown. Ammonium aurintricarboxylate (ATA-10 μM), a well-known inhibitor of DNA binding activity, was included as positive control. […] X-axis represents increasing concentration of Nrf2 inhibitor.
Briefly, fluorescein-labeled oligonucleotides corresponding to Anti-oxidant Response Element (ARE) were diluted to the appropriate concentration in PBS. Nrf2/MafG heterodimer was prepared by gel filtration with mixed samples of purified Nrf2 and MafG proteins. MafG/Nrf2 complex was then diluted with the buffer containing Nrf2 inhibitors or buffer only to the appropriate starting concentration and then serially diluted and incubated at 4° C. for 1 h. A mixture containing fluorescein-labeled ARE and purified protein sample was incubated at 4° C. for another 1 h. After pre-warming samples to 25° C. for 2 to 3 min, fluorescence anisotropy and total intensity was measured for each dilution using a FlexStation 3 (Molecular Devices, LLC) in Basic Binding Assay-FP mode. Ammonium aurintricarboxylate (ATA-10 μM), a well-known inhibitor of DNA binding activity, was included as positive control.

Experimental findings from patent US20160046616A1, “NRF2 SMALL MOLECULE INHIBITORS FOR CANCER THERAPY” (THE JOHNS HOPKINS UNIVERSITY, priority 2013, published 2016) are described below.

Structures are written as SMILES. “Also recorded” adds a separate entry of the source. Bounds are passed on as bounds.

With `O=C(Nc1ncc(Cc2ccc(C(F)(F)F)cc2)s1)c1ccc(-c2cccc([N+](=O)[O-])c2)o1` [Compound 1], the IC50 in experiment [1] is less than 5 µM. Moreover, in the experiment on H460 xenograft tumors, the “Growth of H460 xenograft tumors, combination with carboplatin” value (shortened to “Growth … with carboplatin”) is “shows anti-tumor efficacy in combination with carboplatin”. Further, in experiment [2], the “Growth of MiaPaCa cells, single agent” value was “suppressed the growth of two different pancreatic cell lines” and the “Growth of MiaPaCa cells, combination with gemcitabine” value (from here on “Growth of MiaPaCa cells, combination”) is “enhance the cytotoxicity of gemcitabine; also recorded: potentiates the cytotoxicity of standard care chemotherapy drugs (gemcitabine)”. In addition, in experiment [3], the “Binding of Nrf2-MAFG protein complex to fluorescein labeled ARE oligos” value (shortened to “Binding of Nrf2-MAFG protein complex”) is “Dose dependent reduction in binding”.

Turning to `CC1(C)CC2CC(C)(CN2S(=O)(=O)c2ccc(C(=O)Nc3ccc(Cl)c(S(=O)(=O)N4CCOCC4)c3)cc2)C1` (stereo not shown) [compound 3], the IC50 in experiment [1] was less than 5 µM. Moreover, the “Growth … with carboplatin” value in the experiment with H460 xenograft tumors is recorded as “inhibited the growth”. For the same compound, in the experiment on H460 xenograft tumors (single agent), the “Growth of H460 xenograft tumors, single agent” value is reported as “inhibited the growth”. In addition, in experiment [2], the “Growth of MiaPaCa cells, single agent” value is recorded as “suppressed the growth of two different pancreatic cell lines; also recorded: significant growth inhibitory effect as a single agent” and the “Growth of MiaPaCa cells, combination” value is reported as “enhance the cytotoxicity of gemcitabine”. The “Binding of Nrf2-MAFG protein complex” value in experiment [3] is reported as “Dose dependent reduction in binding”.

For `Cc1ccccc1C(=O)N1CCc2cc(-c3nc(NC(=O)Cc4ccc5c(c4)OCO5)sc3C)ccc21` [compound 4], the IC50 in experiment [1] fell in the range of 5 to 25 µM. For the same compound, in the experiment with H460 xenograft tumors, the “Growth … with carboplatin” value was “sensitized H460 lung tumors to carboplatin drug therapy”. In the experiment on H460 xenograft tumors (listed as ML385), the “Growth … with carboplatin” value was “significant reduction in tumor volume and weight”. In the experiment on H460 xenograft tumors (single agent), the “Growth of H460 xenograft tumors, single agent” value was “significant reduction in tumor volume and weight”; the “Efficacy of compound alone relative to carboplatin, H460 tumors” value is reported as “comparable to carboplatin”. Further, in experiment [2], the “Growth of MiaPaCa cells, single agent” value is listed as “suppressed the growth of two different pancreatic cell lines; also recorded: significant growth inhibitory activity as single agent” and the “Growth of MiaPaCa cells, combination” value is given as “enhance the cytotoxicity of gemcitabine; also recorded: potentiates the cytotoxicity of standard care chemotherapy drugs (gemcitabine)”. For the same compound, the “Binding of Nrf2-MAFG protein complex” value in experiment [3] is given as “Dose dependent reduction in binding”.
